ChEMBL document CHEMBL1201862, “PubChem BioAssay data set” (2004)
Active and inactive are the calls of the source.

Legend:
Estrogen receptor = molecular target: T1, Estrogen receptor (Homo sapiens, UniProt P03372);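 note: potency for inhibiting coactivator peptide recruitment to the receptor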
T1 sequence (P03372 whole entry): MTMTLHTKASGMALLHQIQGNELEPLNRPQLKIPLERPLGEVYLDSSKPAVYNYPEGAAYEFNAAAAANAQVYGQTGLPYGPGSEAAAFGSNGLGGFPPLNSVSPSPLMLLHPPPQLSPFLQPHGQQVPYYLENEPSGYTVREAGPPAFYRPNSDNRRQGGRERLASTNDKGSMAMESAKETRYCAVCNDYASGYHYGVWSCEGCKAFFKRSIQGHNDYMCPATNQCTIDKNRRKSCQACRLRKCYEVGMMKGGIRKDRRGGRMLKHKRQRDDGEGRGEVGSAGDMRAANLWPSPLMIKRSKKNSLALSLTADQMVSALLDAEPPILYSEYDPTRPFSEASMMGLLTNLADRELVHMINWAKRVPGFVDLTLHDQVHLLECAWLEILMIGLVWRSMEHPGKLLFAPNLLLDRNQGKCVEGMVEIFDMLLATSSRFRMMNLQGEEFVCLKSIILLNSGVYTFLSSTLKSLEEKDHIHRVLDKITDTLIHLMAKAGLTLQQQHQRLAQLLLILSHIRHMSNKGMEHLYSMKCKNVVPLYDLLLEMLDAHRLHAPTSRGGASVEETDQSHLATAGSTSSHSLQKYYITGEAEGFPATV

[1] = Trypanosoma cruzi growth suppression in host cells – NIH3T3 host cells, beta-gal luminescence, confirmation (AID 2044); type: functional, cell-based;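 note: intracellular parasites grown in NIH/3T3 mouse fibroblasts as host cells; luminescent beta-galactosidase reporter signal from transgenic T. cruzi replicating inside host cells; inhibitors lower the luminescence signal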
[2] = NIH3T3 cell viability loss – ATP luminescence, mouse fibroblasts, counter-screen, dose response (AID 2010); type: functional, cell-based;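 note: cells exposed to compound for about 90 hours before reading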
[3] = molecular target: T2, RNA-editing ligase 1, mitochondrial (Trypanosoma brucei brucei, UniProt P86926); test: inhibition of trypanosome RNA editing ligase – biochemical, fluorescence, Trypanosoma brucei, dose response (AID 1117295); type: functional
T2 sequence (P86926 whole entry): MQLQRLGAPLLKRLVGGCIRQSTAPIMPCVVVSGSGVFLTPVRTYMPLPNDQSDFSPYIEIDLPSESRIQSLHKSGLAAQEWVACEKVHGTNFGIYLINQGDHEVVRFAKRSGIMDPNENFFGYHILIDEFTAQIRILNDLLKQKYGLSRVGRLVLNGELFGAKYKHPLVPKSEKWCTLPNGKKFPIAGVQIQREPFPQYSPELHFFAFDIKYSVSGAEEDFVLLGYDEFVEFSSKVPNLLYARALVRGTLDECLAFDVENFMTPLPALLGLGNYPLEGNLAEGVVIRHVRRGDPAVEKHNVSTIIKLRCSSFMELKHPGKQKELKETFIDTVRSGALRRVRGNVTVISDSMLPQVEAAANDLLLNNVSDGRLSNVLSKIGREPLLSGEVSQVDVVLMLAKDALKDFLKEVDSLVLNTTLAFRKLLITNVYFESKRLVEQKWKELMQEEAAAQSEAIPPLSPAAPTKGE

[4] = molecular target: T3, Mannose-6-phosphate isomerase (Homo sapiens, UniProt P34949); test: MPI enzyme activity inhibition – biochemical, fluorescence intensity, coupled assay, primary screen (AID 1209)
T3 sequence (P34949 whole entry): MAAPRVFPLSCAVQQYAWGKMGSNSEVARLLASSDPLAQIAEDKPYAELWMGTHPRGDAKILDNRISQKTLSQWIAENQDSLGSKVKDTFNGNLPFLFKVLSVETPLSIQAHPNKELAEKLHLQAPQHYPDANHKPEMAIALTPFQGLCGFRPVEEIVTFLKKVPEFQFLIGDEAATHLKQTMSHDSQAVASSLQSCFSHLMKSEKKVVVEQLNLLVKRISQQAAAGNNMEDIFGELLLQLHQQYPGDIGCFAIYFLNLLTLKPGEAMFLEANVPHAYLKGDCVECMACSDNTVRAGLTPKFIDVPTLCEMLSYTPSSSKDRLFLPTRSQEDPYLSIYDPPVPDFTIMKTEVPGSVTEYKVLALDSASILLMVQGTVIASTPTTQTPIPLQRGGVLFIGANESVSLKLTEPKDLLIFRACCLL

Large T antigen = Large T antigen (Simian virus 40, UniProt P03070); type: functional, Betapolyomavirus macacae;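 note: Confirmatory-stage PubChem screen for compounds that inhibit SV40 T antigen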
Large T antigen, sequence (P03070 whole entry): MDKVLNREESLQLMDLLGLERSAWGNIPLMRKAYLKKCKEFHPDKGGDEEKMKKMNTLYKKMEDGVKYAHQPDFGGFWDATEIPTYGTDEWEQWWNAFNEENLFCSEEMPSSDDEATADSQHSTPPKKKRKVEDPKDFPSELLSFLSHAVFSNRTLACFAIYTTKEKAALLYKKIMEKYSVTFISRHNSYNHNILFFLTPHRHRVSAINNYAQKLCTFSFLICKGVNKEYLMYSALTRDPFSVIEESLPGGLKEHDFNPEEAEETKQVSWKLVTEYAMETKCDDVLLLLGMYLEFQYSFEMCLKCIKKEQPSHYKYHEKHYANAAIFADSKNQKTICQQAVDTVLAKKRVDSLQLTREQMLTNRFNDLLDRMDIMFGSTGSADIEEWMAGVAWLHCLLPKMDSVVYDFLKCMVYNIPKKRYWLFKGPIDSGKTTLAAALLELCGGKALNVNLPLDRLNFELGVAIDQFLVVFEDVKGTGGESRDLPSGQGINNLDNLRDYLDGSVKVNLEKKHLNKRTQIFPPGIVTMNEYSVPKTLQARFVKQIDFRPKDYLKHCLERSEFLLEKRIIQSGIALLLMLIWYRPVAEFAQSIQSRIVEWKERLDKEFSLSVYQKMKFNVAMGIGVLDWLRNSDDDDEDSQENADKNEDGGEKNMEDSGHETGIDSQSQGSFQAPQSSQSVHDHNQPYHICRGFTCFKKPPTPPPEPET

[5] = reduction of Shn3 3'UTR-driven luciferase in osteoblasts – cell-based, Clone20 osteoblasts, firefly luciferase, cherry-picked, dose response (AID 624132); type: functional;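 note: firefly luciferase luminescence from reporter carrying the Shn3 3'UTR in osteoblasts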
Jurkat = test: blockers of NF-kB activation in T cells – Jurkat, luciferase reporter, luminescence, B- and T-cell, dose response (AID 489004); type: functional, cell-based; settings: Homo sapiens;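 note: NF-kB luciferase reporter Jurkat cells stimulated with PMA plus ionomycin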
BJ [6] = test: BJ-TERT-LT-ST fibroblast viability loss – cell-based, RAS-independent, luminescence, dose response (AID 1935); type: functional; settings: Homo sapiens;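 note: BJ fibroblasts immortalized with TERT plus LT and ST oncogenes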
[7] = non-specific 3'UTR reporter inhibition in Clone20-Shn3RL – cell-based, Renilla luciferase, cherry-picked, counter-screen for Shn3 inhibitor project, dose response (AID 624133); type: functional
[8] = loss of viability in HepG2 cells – cell-based, CellTiter-Glo, cherry-picked, cytotoxicity control for Shn3 inhibitor project, dose response (AID 624134); type: functional
[9] = molecular target: Voltage-dependent T-type calcium channel subunit alpha-1H (Homo sapiens, UniProt O95180); type: functional;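 note: channel activity triggered by adding a high calcium stimulation buffer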
Voltage-dependent T-type calcium channel subunit alpha-1H, sequence (O95180 whole entry): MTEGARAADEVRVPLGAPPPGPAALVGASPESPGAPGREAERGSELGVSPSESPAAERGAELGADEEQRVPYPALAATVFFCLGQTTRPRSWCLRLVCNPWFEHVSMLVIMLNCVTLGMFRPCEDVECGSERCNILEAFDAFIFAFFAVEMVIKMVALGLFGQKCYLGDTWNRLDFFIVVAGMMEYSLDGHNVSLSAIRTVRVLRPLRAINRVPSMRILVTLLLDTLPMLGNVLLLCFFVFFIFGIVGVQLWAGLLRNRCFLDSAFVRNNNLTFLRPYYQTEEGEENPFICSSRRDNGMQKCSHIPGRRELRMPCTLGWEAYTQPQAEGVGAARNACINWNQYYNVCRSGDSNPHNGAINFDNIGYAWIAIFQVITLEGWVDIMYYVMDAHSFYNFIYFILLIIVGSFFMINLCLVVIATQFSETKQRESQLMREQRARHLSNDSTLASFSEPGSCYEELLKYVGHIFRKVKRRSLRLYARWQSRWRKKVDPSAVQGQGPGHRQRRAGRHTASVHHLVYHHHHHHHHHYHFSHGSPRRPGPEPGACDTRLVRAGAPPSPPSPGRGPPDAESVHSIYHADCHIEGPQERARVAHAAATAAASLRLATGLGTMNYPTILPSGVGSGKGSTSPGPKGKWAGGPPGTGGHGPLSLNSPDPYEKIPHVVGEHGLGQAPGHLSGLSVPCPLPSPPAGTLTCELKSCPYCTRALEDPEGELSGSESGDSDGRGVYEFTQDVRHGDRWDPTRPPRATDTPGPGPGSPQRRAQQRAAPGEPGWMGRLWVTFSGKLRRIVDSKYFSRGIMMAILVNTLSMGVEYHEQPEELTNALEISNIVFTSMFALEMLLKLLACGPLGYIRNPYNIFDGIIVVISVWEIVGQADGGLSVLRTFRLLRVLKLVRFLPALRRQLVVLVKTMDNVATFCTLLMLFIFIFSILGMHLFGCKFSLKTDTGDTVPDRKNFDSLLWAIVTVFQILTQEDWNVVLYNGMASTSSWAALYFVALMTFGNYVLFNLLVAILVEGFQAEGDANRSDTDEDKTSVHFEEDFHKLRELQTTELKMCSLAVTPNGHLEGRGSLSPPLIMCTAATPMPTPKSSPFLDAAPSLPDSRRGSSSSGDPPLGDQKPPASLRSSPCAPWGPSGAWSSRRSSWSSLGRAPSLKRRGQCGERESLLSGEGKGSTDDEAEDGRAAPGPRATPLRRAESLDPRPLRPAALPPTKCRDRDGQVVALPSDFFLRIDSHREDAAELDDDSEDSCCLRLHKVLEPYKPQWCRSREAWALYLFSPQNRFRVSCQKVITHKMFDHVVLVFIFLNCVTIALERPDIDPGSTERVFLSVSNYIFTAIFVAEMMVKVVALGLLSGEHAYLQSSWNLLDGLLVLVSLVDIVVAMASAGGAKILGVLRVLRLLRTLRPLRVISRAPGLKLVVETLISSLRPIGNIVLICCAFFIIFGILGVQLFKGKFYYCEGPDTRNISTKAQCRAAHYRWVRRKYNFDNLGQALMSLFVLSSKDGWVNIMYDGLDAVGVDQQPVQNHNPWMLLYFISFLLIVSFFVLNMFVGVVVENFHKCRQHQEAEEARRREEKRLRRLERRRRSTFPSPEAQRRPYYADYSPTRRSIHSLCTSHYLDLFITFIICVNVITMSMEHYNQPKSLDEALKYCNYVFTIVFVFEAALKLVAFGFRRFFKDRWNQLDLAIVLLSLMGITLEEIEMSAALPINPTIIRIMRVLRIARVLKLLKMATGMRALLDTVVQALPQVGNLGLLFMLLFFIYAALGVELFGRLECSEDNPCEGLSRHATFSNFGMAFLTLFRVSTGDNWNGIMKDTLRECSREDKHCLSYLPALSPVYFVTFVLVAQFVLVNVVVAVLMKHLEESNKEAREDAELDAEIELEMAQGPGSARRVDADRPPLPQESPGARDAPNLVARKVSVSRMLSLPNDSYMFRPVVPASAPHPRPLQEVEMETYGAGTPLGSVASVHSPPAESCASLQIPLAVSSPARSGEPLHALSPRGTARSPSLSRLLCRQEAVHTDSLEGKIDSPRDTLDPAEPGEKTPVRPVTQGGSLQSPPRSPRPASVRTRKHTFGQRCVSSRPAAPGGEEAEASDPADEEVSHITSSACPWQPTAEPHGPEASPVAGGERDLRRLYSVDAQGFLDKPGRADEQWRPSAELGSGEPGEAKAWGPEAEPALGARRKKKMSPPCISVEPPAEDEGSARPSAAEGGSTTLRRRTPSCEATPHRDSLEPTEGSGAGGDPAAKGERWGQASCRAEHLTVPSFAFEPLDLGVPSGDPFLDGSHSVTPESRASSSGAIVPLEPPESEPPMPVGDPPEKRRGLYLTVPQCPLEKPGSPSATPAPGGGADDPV

[10] = viability of HCT116 lacking mutant beta-catenin – cell-based, human colon tumor, dose response (AID 1045); type: functional;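 note: HCT116 colon tumor cells with beta catenin knocked out; cells exposed to compound for 60 hours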
[11] = molecular target: T4, Calpain-2 catalytic subunit (Sus scrofa, UniProt P43367); test: m-calpain protease blockers, concentration series – biochemical, fluorogenic peptide substrate, dose response (AID 1420); type: functional
T4 sequence (P43367 whole entry): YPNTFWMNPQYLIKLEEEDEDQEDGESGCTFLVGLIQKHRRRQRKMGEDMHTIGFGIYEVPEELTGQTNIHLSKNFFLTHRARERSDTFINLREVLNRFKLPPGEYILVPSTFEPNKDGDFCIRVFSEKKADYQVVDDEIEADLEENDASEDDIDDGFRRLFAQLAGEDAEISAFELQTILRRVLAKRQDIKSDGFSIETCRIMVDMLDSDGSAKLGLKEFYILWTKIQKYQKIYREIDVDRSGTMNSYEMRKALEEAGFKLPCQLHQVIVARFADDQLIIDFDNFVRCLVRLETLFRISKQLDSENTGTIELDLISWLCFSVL

[12] = viability of PTEN-deleted HCT116 cells – cell-based, HCT116 PTEN knockout, dose response (AID 1047); type: functional;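 note: HCT116 colon tumor cells with PTEN knocked out; cells exposed to compound for 60 hours before readout; potency for loss of cell viability measured by luminescence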
[13] = HEK-293T viability loss, compound-treated – cell-based, uHTS hits, cytotoxicity control for B/T-cell NF-kB inhibitor project, dose response (AID 489019); type: functional;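 note: IC50 reflects cytotoxicity as loss of cell viability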
[14] = molecular target: Sphingosine 1-phosphate receptor 2 (Homo sapiens, UniProt O95136); test: Dose Response Cell Based Assay for Antagonists of the S1P2 Receptor. [Related pubchem assays: 856, 736 ]; type: functional
Sphingosine 1-phosphate receptor 2, sequence (O95136 whole entry): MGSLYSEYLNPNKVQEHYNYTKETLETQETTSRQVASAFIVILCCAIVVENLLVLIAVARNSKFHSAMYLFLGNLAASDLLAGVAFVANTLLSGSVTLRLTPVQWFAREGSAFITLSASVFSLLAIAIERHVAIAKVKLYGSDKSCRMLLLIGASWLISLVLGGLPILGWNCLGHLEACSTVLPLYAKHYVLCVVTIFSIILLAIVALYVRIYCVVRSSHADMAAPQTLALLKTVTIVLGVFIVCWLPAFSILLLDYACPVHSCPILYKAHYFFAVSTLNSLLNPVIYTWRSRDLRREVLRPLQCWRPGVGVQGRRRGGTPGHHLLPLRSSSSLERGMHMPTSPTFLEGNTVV

INS1 = test: INS-1E survival protection against cytokine death – cell-based, luminescence, retest, dose response (AID 449756); type: functional; settings: Rattus norvegicus;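 note: cell death triggered by IL-1 beta plus TNF-alpha plus IFN-gamma mixture; protective hits raise ATP signal compared with cytokine alone wells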
BJ [15] = test: BJ-TERT fibroblast viability loss – cell-based, RAS-independent, luminescence, dose response (AID 1933); type: functional; settings: Homo sapiens
[16] = DRD fibroblast viability loss – cell-based, non-viral oncogenic, luminescence, dose response (AID 1934); type: functional; settings: Homo sapiens
[17] = microbe, parasite or virus in culture; type: functional; settings: Mycobacterium tuberculosis
BJ [18] = test: cells; type: functional, cell-based; settings: Homo sapiens
Aspartyl aminopeptidase = molecular target: T5, Aspartyl aminopeptidase (Plasmodium falciparum 3D7, UniProt Q8I2J3); test: Counterscreen for inhibitors of M1 and M17 aminopeptidases: QFRET-based biochemical high throughput dose response assay for inhibitors of the Plasmodium falciparum M18 Aspartyl Aminopeptidase (PFM18AAP). [Related PubChem assays: 1619 (Screening assay (M17LAP inhibitors).), 1445 (Screening assay (M1AAP inhibitors).)]
T5 sequence (Q8I2J3 whole entry): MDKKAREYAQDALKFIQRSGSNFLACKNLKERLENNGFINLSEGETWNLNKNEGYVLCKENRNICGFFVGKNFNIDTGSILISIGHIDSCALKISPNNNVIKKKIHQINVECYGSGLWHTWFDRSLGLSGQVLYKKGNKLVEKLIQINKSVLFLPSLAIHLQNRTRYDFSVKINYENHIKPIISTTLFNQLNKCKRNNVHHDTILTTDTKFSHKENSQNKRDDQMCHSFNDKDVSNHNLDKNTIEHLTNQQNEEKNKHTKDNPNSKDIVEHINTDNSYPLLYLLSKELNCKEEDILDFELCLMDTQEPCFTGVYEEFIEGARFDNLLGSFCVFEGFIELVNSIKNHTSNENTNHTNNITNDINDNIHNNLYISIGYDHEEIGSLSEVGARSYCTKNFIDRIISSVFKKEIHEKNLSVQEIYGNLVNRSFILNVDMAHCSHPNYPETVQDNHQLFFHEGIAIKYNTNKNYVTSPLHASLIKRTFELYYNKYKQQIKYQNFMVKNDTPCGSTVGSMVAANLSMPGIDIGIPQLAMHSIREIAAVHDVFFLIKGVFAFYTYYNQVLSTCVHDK

Leucine aminopeptidase = molecular target: T6, Leucine aminopeptidase (Plasmodium falciparum 3D7, UniProt Q8IL11); test: P. falciparum M17LAP inhibitors, primary screen, biochemical, fluorogenic H-Leu-NHMec substrate, 1536-well (AID 1619); type: functional
T6 sequence (Q8IL11 whole entry): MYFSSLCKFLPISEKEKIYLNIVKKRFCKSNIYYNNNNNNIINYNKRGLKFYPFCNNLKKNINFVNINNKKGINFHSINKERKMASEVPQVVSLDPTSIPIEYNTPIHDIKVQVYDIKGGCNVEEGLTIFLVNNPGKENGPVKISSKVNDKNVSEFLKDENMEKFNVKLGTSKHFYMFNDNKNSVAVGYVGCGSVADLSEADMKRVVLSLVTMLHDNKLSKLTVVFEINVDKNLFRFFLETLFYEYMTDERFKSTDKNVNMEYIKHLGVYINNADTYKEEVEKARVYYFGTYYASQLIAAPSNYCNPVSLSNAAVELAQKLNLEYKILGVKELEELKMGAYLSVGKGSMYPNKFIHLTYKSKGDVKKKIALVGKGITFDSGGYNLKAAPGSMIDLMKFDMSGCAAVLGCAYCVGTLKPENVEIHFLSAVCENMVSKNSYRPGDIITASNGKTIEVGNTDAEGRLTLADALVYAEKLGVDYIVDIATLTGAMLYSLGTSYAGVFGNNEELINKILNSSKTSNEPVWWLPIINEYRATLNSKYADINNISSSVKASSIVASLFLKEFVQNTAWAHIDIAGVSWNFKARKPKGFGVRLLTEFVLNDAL

Procathepsin L = Procathepsin L (Homo sapiens, UniProt P07711); test: CTSL1 protease inhibition – biochemical, QFRET, 1536-well, counter-screen for M1/M17 aminopeptidase inhibitor project, dose response (AID 2214)
Procathepsin L, sequence (P07711 whole entry): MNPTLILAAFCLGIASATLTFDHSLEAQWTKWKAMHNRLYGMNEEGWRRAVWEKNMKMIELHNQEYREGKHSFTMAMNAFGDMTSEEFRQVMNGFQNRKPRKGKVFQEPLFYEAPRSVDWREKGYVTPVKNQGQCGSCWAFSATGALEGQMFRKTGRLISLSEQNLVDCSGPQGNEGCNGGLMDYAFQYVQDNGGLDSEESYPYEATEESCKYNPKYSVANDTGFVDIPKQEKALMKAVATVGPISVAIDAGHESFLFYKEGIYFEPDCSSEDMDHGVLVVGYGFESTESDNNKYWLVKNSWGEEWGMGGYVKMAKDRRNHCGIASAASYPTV

HT-1080 = test: HT1080 cell viability loss – fluorescence readout (AID 620); type: functional, cell-based; settings: Homo sapiens

COc1ccc(Cl)cc1NC(=O)c1oc(C)nc1C
IC50 (Estrogen receptor): > 50 µM (not active)

C/C(N)=C(/C#N)C(=O)CSc1cc(C)c2cc(C)cc(C)c2n1
EC50 [1]: 4.13 µM (active) | IC50 (cells): 12 µM (active) | EC50 [2]: > 60 µM (not active)

COC(=O)C1=C(C)N(Cc2ccccc2C(F)(F)F)C(NCc2ccccc2)=NC1c1cccc(F)c1 (stereo not drawn)
IC50 [3]: > 96.6 µM (inactive)

COc1ccccc1N1CCN(/N=C/c2ccc(O)c(O)c2)CC1
IC50 [4]: > 50 µM (not active) | IC50 (Large T antigen): 15 µM (active)

N#CC(c1cccc(Cl)c1)c1ccc2c(C(F)(F)F)cc(C(F)(F)F)nc2n1 (stereo not drawn)
AC50 [5]: 0.689 µM (active) | IC50 (Jurkat): 34.5 µM (inactive) | EC50 (BJ [6]): 6.56 µM (active) | AC50 [7]: 0.54 µM (active) | AC50 [8]: 0.805 µM (active) | EC50 [9]: 3.85 µM (active) | EC50 [10]: 0.267 µM (active) | IC50 [11]: 6.77 µM (not active) | EC50 [12]: 0.235 µM (active) | IC50 [13]: > 80 µM (inactive) | IC50 [14]: 0.922 µM (active) | AC50 (INS1): 0.881 µM (active) | EC50 (BJ [15]): 2.77 µM (active) | EC50 [16]: 3.04 µM (active) | CC50 [17]: < 0.16 µM (active) | EC50 (BJ [18]): 3.68 µM (inconclusive)

O=C(CSc1nccc(O)n1)Nc1ccc(Br)c(Cl)c1
IC50 (Aspartyl aminopeptidase): > 73.5 µM (not active) | IC50 (Leucine aminopeptidase): 2.5 µM (active) | IC50 (Procathepsin L): > 59.6 µM (not active)

O=C(NC1=NC2CCCCC2N1)c1ccccc1 (stereo not drawn)
EC50 (HT-1080): > 50 µM (not active)

Cc1n[nH]c(C)c1N1C(=O)c2cccc3c(Br)ccc(c23)C1=O
IC50 [14]: > 75.5 µM (not active)
